Paper PMC3209665 (Chemical biology & drug design, 2009)

Test: Solubility in ITC buffer
Type: physicochemical
Settings: 10 mM sodium acetate, pH 5.0, 2% DMSO

## KNI-10006
  solubility: limited solubility
